From PMC8853709, “Synthesis, computational studies, tyrosinase inhibitory kinetics and antimelanogenic activity of hydroxy substituted 2-[(4-acetylphenyl)amino]-2-oxoethyl derivatives” (Journal of Enzyme Inhibition and Medicinal Chemistry, 2019) come the findings set out here.

Entries after “also recorded” stand apart in the source; their conditions may differ. Like-named read-outs stand apart in the source and are kept apart here.

The IC50 is the point on the concentration scale where inhibition reaches its midpoint. By melting point is commonly meant the temperature, or range, at which the solid turns liquid. What is called Ki is a dissociation constant, usually derived from enzyme kinetics or from competition with a known ligand. A word on the viability: it is a read-out of living cells in per cent, often relative to untreated cells.

Data set [1] addresses T1, mushroom tyrosinase (EC 1.14.18.1) (Agaricus bisporus, UniProt C7FF04).
T1 construct: purchased Sigma Chemical Co., ST; Louis, MO
The experiment in a line: Mushroom tyrosinase inhibition assay (L-DOPA, dopachrome absorbance). Format: biochemical, Agaricusbisporus. As to the method: The mushroom tyrosinase (EC 1.14.18.1) (Sigma Chemical Co., ST. Louis, MO) was used for in vitro bioassays as described previously with some modifications[39]^,[40]. Briefly, 140 µL of phosphate buffer (20 mM, pH 6.8), 20 µL of mushroom tyrosinase (30 U/mL) and 20 µL of the inhibitor solution were placed in the wells of a 96-well micro plate. After pre-incubation for 10 min at room temperature, 20 µL of L-DOPA (3,4-dihydroxyphenylalanine) (0.85 mM) was added and the plate was further incubated at 25 °C for 20 min. Subsequently the absorbance of dopachrome was measured at 492 nm using a micro plate reader (OPTI Max, Tunable). Kojic acid was used as a reference inhibitor and for negative tyrosinase inhibitor phosphate buffer was used instead of the inhibitor solution. The extent of inhibition by the test compounds was expressed as the percentage of concentration necessary to achieve 50% inhibition (IC50). Each concentration was analysed in three independent experiments run in triplicate. The IC50 values were determined by the data analysis and graphing software Origin 8.6, 64-bit.

A further data set concerns the target T2, mushroom tyrosinase (Agaricus bisporus, UniProt C7FF04).
T2 construct: purchased Sigma Chemical Co., ST; Louis, MO
The data set can be described thus: Kinetic analysis of the inhibition of mushroom tyrosinase (Lineweaver–Burk, Dixon, enzyme concentration plots). Format: biochemical, Agaricusbisporus. Conditions: for type of inhibition (Lineweaver–Burk plot) / Ki: diphenolase activity, L-DOPA; for Ki: read-out: dissociation constant Ki (Dixon plot); for mode of binding (reversibility of enzyme–inhibitor complex): remaining enzyme activity versus enzyme concentration 1.25, 2.5 and 5 µg/mL. As to the method: To understand the mechanism of mushroom tyrosinase inhibition by compounds 5c and 5d, kinetic studies were conducted. […] Enzyme inhibition kinetics was analysed by Lineweaver–Burk plot and Dixon plots to determine the type of inhibition and inhibition constant (KI).
The inhibitory mechanism of mushroom tyrosinase by compounds 5c (in concentrations: 0.0, 0.0011, 0.0022, 0.0045, 0.0090 and 0.018 µM) and 5d (in concentrations: 0.0, 1.75, 3.5, 7.0, 14, 28 and 56 µM) were investigated.
A series of experiments were performed to determine the inhibition kinetics by following method[41]^,[42]. Inhibitor 5c with concentrations […], 0.0022, 0.0045, 0.009, 0.018 µM and 5d with concentrations 0.0, 1.75, 3.5, 7, 14 and 28 µM, respectively, were used. Substrate L-DOPA concentration was among 0.0625–2 mM in all kinetic study. Pre-incubation and measurement time was the same as discussed in mushroom tyrosinase inhibition assay protocol. The formation of DOPAchrome was continuously monitored at 475 nm for 5 min at a 30 s interval in the microplate reader after addition of enzyme. The inhibition type on the enzyme was assayed by Lineweaver–Burk plots of inverse of velocities (1/V) versus inverse of substrate concentration 1/[S] mM^−1, and the inhibition constant Ki was determined by the Dixon plot of 1/V versus inhibitor concentrations.

Data set [2] in a line: MTT cell viability assay and cell morphology. The format is cell-based, murine. As to conditions: mouse, B16F10 murine melanoma cells, B16F10, 24 µg/ml, read-out: toxic effect in MTT cell viability assay, compared to control normalized to 100%. As to the method: (§1) To test the safety level of 5c compound, MTT assay (3-(4,5-dimethylthiazol-2-yl)-2,5-diphenyltetrazolium Bromide) was performed. The murine melanoma (B16F10) cells (1.5 × 10^5 cells/ml) were seeded in 24 well plates (SPL Korea) with DMEM medium at 37 °C and 5% CO2 incubator. Test compound 5c was dissolved in DMSO and diluted with culture medium to get the final concentrations of 0 (control), 6, 12 and 24 µg/ml, and then added to the cells for 24 h further incubation. The MTT assay was then conducted, and results were calculated in percentage of control. In addition, cellular images were taken by inverted fluorescent microscope (Nikon, ECLIPSE, Tokyo, Japan) to access the 5c effect on cell morphology.
A general note: Tetrazolium dyes change colour on reduction, which living cells bring about.

Data set [3] has as its system murine melanoma (B16F10) cells. The data set can be described thus: MTT cell viability assay and cell morphology. Format: cell-based. As to conditions: 24 h. As to the method: as §1
Data set [4] relates to murine melanoma (B16F10) cells. The experiment in a line: Melanin content measurement. The format is cell-based. As to the method: For melanin measurement, melanoma (1.5 × 10^5) cells were seeded in cell culture plates for 24 h at 37 °C and 5% CO2incubator. Then cells were incubated with various concentrations of 5c in cell culture medium for further 24 h. Later, assay for melanin measurement was performed following already reported method. Briefly, the cells were trypsinised and centrifuged for 5 min at 1000 rpm. The cell pellet was dissolved in 1 N NaOH at 60 °C for 1 h and melanin content was measured spectrophotometrically at 405 nm wavelengths using a microplate reader (BioTek, synergy HT, Winooski, VT).

Setting [5] is: L-DOPA substrate, pH 6.8, 25 °C, read-out: Mushroom tyrosinase inhibition IC50.

T2 sequence (C7FF04 2-392): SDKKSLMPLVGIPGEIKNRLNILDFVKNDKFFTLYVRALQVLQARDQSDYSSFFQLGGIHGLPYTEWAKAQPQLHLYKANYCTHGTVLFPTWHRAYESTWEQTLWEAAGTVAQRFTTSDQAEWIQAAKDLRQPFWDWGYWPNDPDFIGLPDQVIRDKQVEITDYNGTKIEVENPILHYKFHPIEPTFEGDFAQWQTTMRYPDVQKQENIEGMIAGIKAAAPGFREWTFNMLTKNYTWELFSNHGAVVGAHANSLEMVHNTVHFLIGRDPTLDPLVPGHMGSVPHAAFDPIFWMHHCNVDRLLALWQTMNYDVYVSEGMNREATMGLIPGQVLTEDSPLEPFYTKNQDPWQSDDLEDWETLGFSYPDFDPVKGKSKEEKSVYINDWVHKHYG
T1 sequence (C7FF04 2-392): as above

With `CC(=O)c1ccc(NC(=O)CCl)cc1` [Compound 1], the IC50 in data set [1] came to 54.5 ± 3.1 µM.
The compound `CC(=O)c1ccc(NC(=O)COC(=O)c2cccc(O)c2)cc1` [Compound 3a, 2-[(4-Acetylphenyl)amino]-2-oxoethyl 3-hydroxybenzoate] gave an IC50 in data set [1] of 325 ± 16.9 µM.
In data set [1], `CC(=O)c1ccc(NC(=O)COC(=O)c2ccc(O)cc2)cc1` [Compound 3b, 2-[(4-Acetylphenyl)amino]-2-oxoethyl 4-hydroxybenzoate] came in with an IC50 of 319 ± 31.9 µM.
Same read-out and setting: to `CC(=O)c1ccc(NC(=O)COC(=O)c2ccc(O)cc2O)cc1` [Compound 3c, 2-[(4-Acetylphenyl)amino]-2-oxoethyl 2,4-dihydroxybenzoate] belongs 145 ± 16.7 µM; to `CC(=O)c1ccc(NC(=O)COC(=O)c2ccc(O)c(O)c2)cc1` [Compound 3d, 2-[(4-Acetylphenyl)amino]-2-oxoethyl 3,4-dihydroxybenzoate], 257 ± 23.4 µM.
Compound `CC(=O)c1ccc(NC(=O)COC(=O)c2cc(O)cc(O)c2)cc1` [Compound 3e] yielded a melting point of 249 to 251 °C. The IC50 in data set [1] stood at 166 ± 14.2 µM.
`CC(=O)c1ccc(NC(=O)COC(=O)C=Cc2ccccc2)cc1` [Compound 5a, 2-[(4-Acetylphenyl)amino]-2-oxoethyl cinnamate] came in with an IC50 in data set [1] of 63.5 ± 2.5 µM.
`CC(=O)c1ccc(NC(=O)COC(=O)/C=C/c2ccc(O)cc2)cc1` [Compound 5b, 2-[(4-Acetylphenyl)amino]-2-oxoethyl (E)-3-(4-hydroxyphenyl)acrylate]: the melting point is 226 to 228 °C. In data set [1], this compound gave an IC50 of 97.3 ± 5.8 µM.
On to `CC(=O)c1ccc(NC(=O)COC(=O)/C=C/c2ccc(O)cc2O)cc1` [Compound 5c, 2-[(4-Acetylphenyl)amino]-2-oxoethyl (E)-3-(2,4-dihydroxyphenyl)acrylate], for which the melting point was 236 to 238 °C. The IC50 in data set [1] (setting [5]) was 0.0089 ± 0.0004 µM. Besides, at mushroom tyrosinase, the “type of inhibition (Lineweaver–Burk plot)” value is given as “competitive inhibitor”, the Ki was determined as 0.01 µM and the “mode of binding (reversibility of enzyme–inhibitor complex)” value is reported as “irreversibly bind; also recorded: irreversible mode of binding”. In addition, the viability at 24 h, 24 µg/ml in data set [2] worked out at 33.7%. Also, the “effect on cell viability (MTT)” value in data set [3] (B16F10, 12 µg/ml) was “safe and no significant effect and nontoxic”. Also, in data set [3] (B16F10, 3, 6, 12 µg/ml), the “effect on cell morphology” value is reported as “no effect on cell morphology”. Further, the antimelanogenic activity entry in data set [4] (B16F10, 12 µg/mL) is “produced antimelenogenic effects”. Besides, in data set [4] (B16F10, 12 µg/ml, 24 h), the “cellular melanin content as compared to control normalized to 100%” value stood at 82%.
For the compound `CC(=O)c1ccc(NC(=O)COC(=O)/C=C/c2ccc(Cl)cc2)cc1` [Compound 5d, 2-[(4-Acetylphenyl)amino]-2-oxoethyl-(E)-3-(4-chlorophenyl)acrylate], the IC50 in data set [1] (setting [5]) amounted to 8.26 ± 1.7 µM. In addition, at mushroom tyrosinase, the “type of inhibition (Lineweaver–Burk plot)” value is given as “mixed-type inhibitor”, the Ki turned out to be 6 µM and the “mode of binding (reversibility of enzyme–inhibitor complex)” value is reported as “irreversibly bind; also recorded: irreversible inhibitor; also recorded: irreversible mode of binding”.
